Test [1] is described as follows: Antimicrobial activity against Waddlia chondrophila ATCC VR-1470 infected in Vero cells. The format is functional, Waddlia chondrophila WSU 86-1044.
Another test deals with Chlamydia trachomatis. The experiment in a line: Antimicrobial activity against Chlamydia trachomatis infected in Vero cells. Format: functional.
The nature of test [2]: Antimicrobial activity against Waddlia chondrophila ATCC VR-1470 infected in Acanthamoeba castellanii amoeba cells. The format is functional, Waddlia chondrophila WSU 86-1044.
The test system of test [3] is Parachlamydia acanthamoebae. The experiment in a line: Antimicrobial activity against Parachlamydia acanthamoebae infected in Acanthamoeba castellanii amoeba cells. Format: functional.
A further test has as its system Chlamydia pneumoniae. The experiment in a line: Antimicrobial activity against Chlamydophila pneumoniae infected in Vero cells. The format is functional.
In another test the test system is Chlamydophila psittaci. Nature of the test: Antimicrobial activity against Chlamydophila psittaci infected in Vero cells. Format: functional. Conditions: Chlamydia psittaci.
A short description of test [4]: Antimicrobial activity against Waddlia chondrophila 2032/99 infected in Acanthamoeba castellanii amoeba cells. The format is functional.

Molecules are shown by their SMILES. Converted amounts (≈) assume the structure as drawn.

In the case of `CO/N=C(\C(=O)N[C@@H]1C(=O)N2C(C(=O)O)=C(CSc3nc(=O)c(O)nn3C)CS[C@H]12)c1csc(N)n1` [CEFTRIAXONE], the minimal inhibitory concentration (MIC) (in test [1]; against Chlamydia trachomatis; in test [2]; in test [3]) was > 32 mg/L in each case.
`CC1(C)S[C@@H]2[C@H](NC(=O)[C@H](N)c3ccc(O)cc3)C(=O)N2[C@H]1C(=O)O` [AMOXICILLIN]: the MIC in test [3] is > 32 mg/L.
For the molecule `CC1COc2c(N3CCN(C)CC3)c(F)cc3c(=O)c(C(=O)O)cn1c23` (stereo not drawn) [OFLOXACIN], the MIC in test [1] was > 16 mg/L; with Chlamydia trachomatis, 0.5 mg/L (≈ 1.38 µM); in test [2], > 16 mg/L; against Chlamydia pneumoniae it was 0.5 mg/L (≈ 1.38 µM); in test [3] it was > 16 mg/L; against Chlamydophila psittaci, 0.5 mg/L (≈ 1.38 µM).
`CC[C@H]1OC(=O)[C@H](C)[C@@H](O[C@H]2C[C@@](C)(OC)[C@@H](O)[C@H](C)O2)[C@H](C)[C@@H](O[C@@H]2O[C@H](C)C[C@H](N(C)C)[C@H]2O)[C@](C)(O)C[C@@H](C)CN(C)[C@H](C)[C@@H](O)[C@]1(C)O` [AZITHROMYCIN]: the MIC in test [4] was found to be 0.06 mg/L (≈ 0.0801 µM); in test [1] it was 0.25 mg/L (≈ 0.334 µM); with Chlamydia trachomatis, 0.125 mg/L (≈ 0.167 µM); in test [2] it was 0.06 mg/L (≈ 0.0801 µM); against Chlamydia pneumoniae, 0.06 mg/L (≈ 0.0801 µM); in the test on Chlamydophila psittaci, 0.125 mg/L (≈ 0.167 µM).
Consider `C[C@H]1c2cccc(O)c2C(=O)C2=C(O)[C@]3(O)C(=O)C(C(N)=O)=C(O)[C@@H](N(C)C)[C@@H]3[C@@H](O)[C@@H]21.O` [DOXYCYCLINE], for which the MIC turned out to be 1 mg/L in test [4]; 0.25 mg/L in test [1]; 0.03 mg/L in the test on Chlamydia trachomatis; 4 mg/L in test [2]; 0.03 mg/L with Chlamydia pneumoniae; 0.5 mg/L in test [3]. In the test on Chlamydophila psittaci, this molecule showed an MIC of 0.03 mg/L.
On to `CC1(C)S[C@@H]2[C@H](NC(=O)[C@H](N)c3ccccc3)C(=O)N2[C@H]1C(=O)O` [AMPICILLIN], for which the MIC is > 32 mg/L in test [1], > 32 mg/L in test [2] and > 100 mg/L against Chlamydia pneumoniae.
Regarding `O=C(O)c1cn(C2CC2)c2cc(N3CCNCC3)c(F)cc2c1=O` [CIPROFLOXACIN], the MIC in test [1] is > 16 mg/L; against Chlamydia trachomatis it was 0.5 mg/L (≈ 1.51 µM); in test [2], > 16 mg/L; with Chlamydia pneumoniae, 1 mg/L (≈ 3.02 µM); in test [3] it was > 16 mg/L; against Chlamydophila psittaci, 1 mg/L (≈ 3.02 µM).

What is called MIC is the lowest concentration that inhibits growth of the organism. A lower MIC goes with inhibition by little substance.

Source of the values: ChEMBL document CHEMBL1649457, “Antibiotic susceptibility of Waddlia chondrophila in Acanthamoeba castellanii amoebae” (2009).
